The supplement of paper PMC8612539
≈ marks a conversion by molar mass, not a printed value.

How the values were obtained:
Mannheimia haemolytica = experiment: minimum inhibitory concentration (MIC)
Description: (§1)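 Broth microdilution MIC (Sensititre BOPO7F bovine plate, CLSI methods) of 19 antimicrobials against field isolates of P. multocida, M. haemolytica, H. somni (deep nasopharyngeal swabs) and E. coli, Enterococcus spp. (rectal swabs) from weaned dairy heifers. Incubation 16-24 h at 35 C. MIC is the lowest concentration preventing visible growth. Values with <= or > lie at the tested range limits. Trimethoprim-sulfamethoxazole is given as the trimethoprim component of a 1:19 mixture.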

Enterococcus spp. = experiment: minimum inhibitory concentration (MIC)
Description: as §1

CC[C@H]1OC(=O)C[C@@H](O)[C@H](C)[C@@H](O[C@@H]2O[C@H](C)[C@@H](O[C@H]3C[C@@](C)(O)[C@@H](O)[C@H](C)O3)[C@H](N(C)C)[C@H]2O)[C@@H](CC=O)C[C@@H](C)C(=O)/C=C/C(C)=C/[C@@H]1CO[C@@H]1O[C@H](C)[C@@H](O)[C@@H](OC)[C@H]1OC [Tylosin]
minimum inhibitory concentration [µg/mL]
Conditions	Enterococcus spp.	Mannheimia haemolytica
isolate (source animal id): 2	2 (≈ 2.18 µM)	–
isolate (source animal id): 8	–	> 32
isolate (source animal id): 13	–	> 32
isolate (source animal id): 18	–	> 32
isolate (source animal id): 21	–	> 32
isolate (source animal id): 25	–	> 32
isolate (source animal id): 27	–	> 32
isolate (source animal id): 28	–	> 32
isolate (source animal id): 30	–	> 32
isolate (source animal id): 31	–	> 32
isolate (source animal id): 32	–	> 32
isolate (source animal id): 34	–	> 32
isolate (source animal id): 35	> 32	–
isolate (source animal id): 36	–	> 32
isolate (source animal id): 37	–	> 32
isolate (source animal id): 40	–	32 (≈ 34.9 µM)
isolate (source animal id): 41	–	> 32
isolate (source animal id): 42	2 (≈ 2.18 µM)	–
isolate (source animal id): 43	–	> 32
isolate (source animal id): 44	2 (≈ 2.18 µM)	–
isolate (source animal id): 46	–	> 32
isolate (source animal id): 49	–	> 32
isolate (source animal id): 50	–	> 32
isolate (source animal id): 51	–	> 32
isolate (source animal id): 52	–	> 32
isolate (source animal id): 53	–	> 32
isolate (source animal id): 55	–	32 (≈ 34.9 µM)
isolate (source animal id): 56	–	> 32
isolate (source animal id): 57	–	> 32
isolate (source animal id): 79	2 (≈ 2.18 µM)	–
isolate (source animal id): 88	2 (≈ 2.18 µM)	–
isolate (source animal id): 91	2 (≈ 2.18 µM)	–
isolate (source animal id): 92	2 (≈ 2.18 µM)	–
isolate (source animal id): 100	–	> 32
isolate (source animal id): 103	–	> 32
isolate (source animal id): 107	–	> 32
isolate (source animal id): 108	–	> 32
isolate (source animal id): 111	2 (≈ 2.18 µM)	–
isolate (source animal id): 112	–	> 32
isolate (source animal id): 113	–	> 32
isolate (source animal id): 121	–	> 32
isolate (source animal id): 122	> 32	> 32
isolate (source animal id): 123	2 (≈ 2.18 µM)	> 32
isolate (source animal id): 126	–	> 32
isolate (source animal id): 133	2 (≈ 2.18 µM)	> 32
isolate (source animal id): 135	–	> 32
isolate (source animal id): 138	–	> 32
isolate (source animal id): 141	–	> 32
isolate (source animal id): 142	–	> 32
isolate (source animal id): 145	–	> 32
isolate (source animal id): 149	–	> 32
isolate (source animal id): 151	–	> 32
isolate (source animal id): 152	–	> 32
isolate (source animal id): 154	–	> 32
isolate (source animal id): 158	> 32	–
isolate (source animal id): 159	–	> 32
isolate (source animal id): 162	–	> 32
isolate (source animal id): 168	2 (≈ 2.18 µM)	–
isolate (source animal id): 169	2 (≈ 2.18 µM)	–
isolate (source animal id): 170	–	> 32
isolate (source animal id): 171	2 (≈ 2.18 µM)	> 32
isolate (source animal id): 172	–	> 32
isolate (source animal id): 173	–	> 32
isolate (source animal id): 175	> 32	–
isolate (source animal id): 177	4 (≈ 4.37 µM)	–
isolate (source animal id): 179	–	32 (≈ 34.9 µM)
isolate (source animal id): 180	–	> 32
isolate (source animal id): 181	2 (≈ 2.18 µM)	–
isolate (source animal id): 182	2 (≈ 2.18 µM)	–
isolate (source animal id): 183	2 (≈ 2.18 µM)	> 32
isolate (source animal id): 186	–	> 32
isolate (source animal id): 187	2 (≈ 2.18 µM)	> 32
isolate (source animal id): 188	–	> 32
isolate (source animal id): 190	2 (≈ 2.18 µM)	> 32
isolate (source animal id): 191	–	> 32
isolate (source animal id): 192	–	> 32
isolate (source animal id): 194	2 (≈ 2.18 µM)	–
isolate (source animal id): 195	2 (≈ 2.18 µM)	–
isolate (source animal id): 197	2 (≈ 2.18 µM)	–
isolate (source animal id): 201	–	> 32
isolate (source animal id): 202	–	> 32
isolate (source animal id): 209	–	> 32
isolate (source animal id): 211	2 (≈ 2.18 µM)	> 32
isolate (source animal id): 214	2 (≈ 2.18 µM)	–
isolate (source animal id): 220	–	> 32
isolate (source animal id): 221	–	> 32
isolate (source animal id): 222	4 (≈ 4.37 µM)	–
isolate (source animal id): 223	2 (≈ 2.18 µM)	> 32
isolate (source animal id): 228	> 32	–
isolate (source animal id): 230	> 32	–
isolate (source animal id): 233	–	> 32
isolate (source animal id): 235	> 32	–
isolate (source animal id): 236	8 (≈ 8.73 µM)	–
isolate (source animal id): 237	–	> 32
isolate (source animal id): 239	2 (≈ 2.18 µM)	–
isolate (source animal id): 241	> 32	> 32
isolate (source animal id): 244	2 (≈ 2.18 µM)	–
isolate (source animal id): 246	2 (≈ 2.18 µM)	–
isolate (source animal id): 247	> 32	–
isolate (source animal id): 250	2 (≈ 2.18 µM)	–
isolate (source animal id): 252	> 32	> 32
isolate (source animal id): 253	–	> 32
isolate (source animal id): 259	–	> 32
isolate (source animal id): 260	–	> 32
isolate (source animal id): 262	–	> 32
isolate (source animal id): 268	> 32	–
isolate (source animal id): 282	2 (≈ 2.18 µM)	> 32
isolate (source animal id): 285	> 32	–
isolate (source animal id): 287	–	> 32
isolate (source animal id): 288	–	> 32
isolate (source animal id): 289	2 (≈ 2.18 µM)	–
isolate (source animal id): 290	4 (≈ 4.37 µM)	–
isolate (source animal id): 291	–	> 32
isolate (source animal id): 293	–	> 32
isolate (source animal id): 296	2 (≈ 2.18 µM)	–
isolate (source animal id): 298	≤ 0.5	> 32
isolate (source animal id): 299	–	> 32
isolate (source animal id): 300	–	32 (≈ 34.9 µM)
isolate (source animal id): 301	2 (≈ 2.18 µM)	–
isolate (source animal id): 302	–	> 32
isolate (source animal id): 304	–	> 32
isolate (source animal id): 306	–	> 32
isolate (source animal id): 308	–	> 32
isolate (source animal id): 309	–	> 32
isolate (source animal id): 310	> 32	–
isolate (source animal id): 313	–	> 32
isolate (source animal id): 318	–	> 32
isolate (source animal id): 320	2 (≈ 2.18 µM)	> 32
isolate (source animal id): 321	–	> 32
isolate (source animal id): 323	–	> 32
isolate (source animal id): 324	–	> 32
isolate (source animal id): 326	–	> 32
isolate (source animal id): 328	–	> 32
isolate (source animal id): 329	–	> 32
isolate (source animal id): 331	4 (≈ 4.37 µM)	–
isolate (source animal id): 333	2 (≈ 2.18 µM)	> 32
isolate (source animal id): 335	–	> 32
isolate (source animal id): 338	–	> 32
isolate (source animal id): 341	> 32	–
